Data published in US9926340B2, “NAD analogs and methods of using said NAD analogs in determining ribosylation of proteins with PARP mutants” (The Board of Regents of the University of Texas System, priority 2015, dated 2018).

Legend:
PARP-1 = biological target: T1, PARP-1 (Homo sapiens, UniProt P09874); assay: PARP-1 enzyme kinetics assay (LC-HPLC of nicotinamide formation); format: biochemical; conditions: 250 nM PARP-1, 10-500 μM analog; data not shown
T1 construct: His10; made in house; host or cells: E. coli BL21(DE3) (inferred)
T1 sequence (P09874 whole entry): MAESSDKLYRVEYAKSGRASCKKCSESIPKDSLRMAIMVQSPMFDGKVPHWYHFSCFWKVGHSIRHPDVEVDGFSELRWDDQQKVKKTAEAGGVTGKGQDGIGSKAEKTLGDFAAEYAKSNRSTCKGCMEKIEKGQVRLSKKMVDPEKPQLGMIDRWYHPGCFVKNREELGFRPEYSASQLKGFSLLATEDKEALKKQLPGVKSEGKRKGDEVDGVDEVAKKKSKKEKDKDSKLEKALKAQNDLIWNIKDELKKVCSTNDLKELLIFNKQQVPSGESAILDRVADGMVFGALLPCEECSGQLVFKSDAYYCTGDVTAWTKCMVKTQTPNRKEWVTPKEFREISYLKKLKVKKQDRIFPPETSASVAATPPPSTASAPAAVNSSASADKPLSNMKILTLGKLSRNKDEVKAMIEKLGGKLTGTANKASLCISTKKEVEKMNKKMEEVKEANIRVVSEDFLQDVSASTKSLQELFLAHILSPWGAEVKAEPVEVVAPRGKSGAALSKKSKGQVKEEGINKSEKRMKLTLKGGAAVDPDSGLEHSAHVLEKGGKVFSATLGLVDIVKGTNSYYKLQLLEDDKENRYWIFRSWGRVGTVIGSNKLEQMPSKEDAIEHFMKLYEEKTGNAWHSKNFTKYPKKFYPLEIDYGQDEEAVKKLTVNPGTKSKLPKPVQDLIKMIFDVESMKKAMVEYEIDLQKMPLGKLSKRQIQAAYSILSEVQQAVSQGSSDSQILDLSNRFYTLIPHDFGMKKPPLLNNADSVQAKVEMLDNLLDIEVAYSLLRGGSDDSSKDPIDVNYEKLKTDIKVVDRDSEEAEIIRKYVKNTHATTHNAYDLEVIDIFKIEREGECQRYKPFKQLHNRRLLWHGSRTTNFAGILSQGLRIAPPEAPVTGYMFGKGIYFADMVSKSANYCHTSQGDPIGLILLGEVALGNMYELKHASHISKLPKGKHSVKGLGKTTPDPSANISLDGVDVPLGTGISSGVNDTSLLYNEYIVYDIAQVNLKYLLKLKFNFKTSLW
Method: (§1) The enzyme kinetics of wild-type and analog-sensitive mutants of human PARP-1 were determined essentially as previously described (Jiang et al., 2010). Purified PARP-1 proteins were incubated for 5 minutes in PARP Enzyme Kinetics Buffer (50 mM Tris.HCl, pH 7.9, 4 mM MgCl2) containing 0.5 mg/mL sonicated salmon sperm DNA (Stratagene) at 25° C. with 10, 20, 30, 50, 100, 250, and 500 μM NAD^+ or 8-Bu(3-yne)T-NAD^+. The concentrations of the purified PARP-1 proteins were (1) 25 nM for PARP-1 with NAD^+, (2) 50 nM for PARP-1(L877A) with NAD^+, and […] 250 nM for PARP-1 and PARP-1(L877A) with 8-bu(3-yne)T-NAD^+. The reactions were brought to 450 mM perchloric acid (HClO4) to stop them, incubated for 5 minutes on ice, and then brought to […] potassium carbonate (K2CO3) to quench them. The quenched reactions were centrifuged at maximum speed in a microcentrifuge at 4° C., and the supernatant containing small molecules from the automodification reaction was collected.
(§2) The supernatants from the extracted ADP-ribosylation reactions were analyzed using a Shimadzu LCMS-QP8000α with a Phenomenex Kinetex C18 column (150×4.6 mm, 5 μm XB-C18 100A) monitored at 260 nm. […] Quantitative values for the small molecules and metabolites were obtained by comparison to a standard curve. […]

PARP-1 (L877A) = biological target: T2, PARP-1 (L877A) (Homo sapiens, UniProt P09874, L877A); assay: as above; format: biochemical; conditions: 250 nM PARP-1(L877A), 10-500 μM analog, 25° C., 5 minutes
T2 construct: His10; made in house; host or cells: E. coli BL21(DE3) (inferred)
T2 sequence (P09874 whole entry L877A): as the sequence (P09874 whole entry) above, with L877A counted along it
Method: as §1, §2

## C#CCCSc1nc2c(N)ncnc2n1[C@@H]1O[C@H](COP(=O)(O)OP(=O)(O)OC[C@H]2O[C@@H]([n+]3cccc(C(N)=O)c3)C(O)C2O)[C@H](O)C1O (some centres unmarked) [8-Bu(3-yne)T-NAD^+]
PARP-1
  saturation of PARylation activity: No saturation was detectable
PARP-1 (L877A)
  enzyme kinetics compared to PARP-1 and NAD+: nearing wild-type enzyme kinetics
